In the NIST ThermoML archive (doi:10.1021/acs.jced.9b00246):

Assay: an = ratio of the nth substance listed
Settings: 101.3 kPa, Liquid; for viscosity: Concentric cylinders viscometry; for mass density: Vibrating tube method

CCN.Cl [ethylammonium chloride] + NC(N)=O
Settings | mass density, 313.2 K [kg/m3] | mass density, 323.2 K [kg/m3] | mass density, 333.2 K [kg/m3] | mass density, 343.2 K [kg/m3] | mass density, 353.2 K [kg/m3] | viscosity, 313.2 K [mPa·s] | viscosity, 323.2 K [mPa·s] | viscosity, 333.2 K [mPa·s] | viscosity, 343.2 K [mPa·s] | viscosity, 353.2 K [mPa·s]
a2 = 0.5 | 1103.2 | 1098.1 | 1093.11 | 1088.05 | 1083.06 | 97.8 | 69.6 | 50.8 | 40.9 | 34.8
a2 = 1 | 1141.67 | 1135.99 | 1130.4 | 1124.89 | 1119.43 | 197.7 | 110.1 | 68.3 | 47.6 | 34.8
a2 = 1.94 | 1178.75 | 1172.79 | 1166.88 | 1160.96 | 1155.08 | 105.5 | 67.5 | 49.2 | 37.5 | 28.7
